In patent EP4417202A1, “ANTI-CANCER ACTION OF BAG1-SELECTIVE IMIDAZOPYRIDINE COMPOUNDS IN STEROID HORMONE RECEPTOR-POSITIVE BREAST AND PROSTATE CANCER” (Karlsruher Institut für Technologie, priority 2023, dated 2024):

What was measured:
[1] = tested on: ERα; settings: MCF-7 cells, 1 µM for 24 h, then 100 µg/ml cycloheximide; > 120 min in the absence of X15695
Procedure: Thereafter, cells were incubated with the protein synthesis inhibitor cycloheximide (100 µg/ml) and harvested at time points 0, 30, 60, 90 and 120 min. Cells were lysed and used for Western blotting to determine the ERα level at each time point.

[2] = tested on: reactive oxygen species (ROS); assay: Reduced 2',7'-dichlorofluorescein (DCF) diacetate oxidation assay; type: cell-based; settings: 48 h
Procedure: For measurements of ROS levels, MCF-7 and T47D cells were seeded at 1×10^3 cells in RPMI 1640 supplemented with 10% FBS and treated with 10^-9 - 10^-6 M X15695 for 48 h. Afterwards, cells were loaded with 10 µM) H2DCF-DA (Thermo Fisher Scientific, Karlsruhe, Germany) in phenol red-free medium for 40 min. Cells were subsequently washed with medium and further incubated in medium for 120 min before analysis of fluorescence at 485 nm excitation and 530 nm emission using a multi-well fluorescence reader (SpectraMax iD3, Molecular Devices with SoftMax Pro 7 software, Biberach an der Riss, Germany). After the DCF assay, cells were frozen at -80°C overnight. After thawing, DNA was stained with a Hoechst dye (10 µg/ml final concentration) for 30 min at room temperature and fluorescence was measured at 352 nm excitation and 454 nm emission in a multi-well fluorescence reader (SpectraMax iD3, Molecular Devices with SoftMax Pro 7 software, Biberach an der Riss, Germany). DCF fluorescent intensities were normalized to Hoechst fluorescent intensities.

[3] = tested on: p53; assay: Immunofluorescence assay, cellular localization of p53; type: cell-based; settings: MCF-7 cells, 1 µM
Procedure: For immunofluorescence assay, MCF-7, T47D, 22Rv.1, LAPC-4 and LNCaP cells (10^4 each) were seeded on coverslips in a 24-well plate and the desired treatment applied. After three times washing with PBS, cells were fixed with 4% paraformaldehyde solution for 10 min at room temperature. Next, the cells were washed three times with PBS and permeabilized with 0.5% Triton X-100 for 10 min at room temperature. Following three additional washing steps with PBS, cells were treated with 5% bovine serum albumin (w/v) for 1 h at room temperature and subjected to overnight incubation with the primary antibody p53 (DO1 clone or Sp5, Thermo Fisher Scientific), ERα (F-10, Santa-Cruz) or mortalin (D-9, Santa-Cruz) and then washed three times with PBS followed by incubation with goat anti-mouse IgG, Alexa Fluor™ 488 antibody and/or goat anti-rabbit IgG, Alexa Fluor™ 546 antibody (Thermo Fisher Scientific) for 1 h at room temperature in the dark. All subsequent steps were performed in the dark. Cells were washed 3 times with PBS and stained with 0.1 µg/ml DAPI (Thermo Fisher Scientific) solution at 1:10,000 (v/v) dilution for 15 min at room temperature. After three times washing with PBS the cells were mounted in Mowiol® 4-88 on microscope slides and observed by laser-scanning confocal microscopy (Confocal Microscope platform […]6-LSM900, […], Germany).

[4] = tested on: MCF-7; assay: Clonogenic assay (clonal expansion); type: cell-based
Procedure: (§1) Cells were seeded at a density of 1-2×10^3 cells/well in a 6 well plate in RPMI 1640 supplemented with 10% FBS, penicillin (100 u/ml), streptomycin (100 u/ml), and L-glutamine (2 mM). Cells were treated with increasing concentrations of X15695 and cultured for 14 to 21 days. Medium and compounds were exchanged after 7 days. Cells were fixed with methanol/ acetic acid mixture (3:1 v/v) and the formation of colonies was visualized using 0.5% crystal violet (w/v) in 20% methanol (v/v). Plates were scanned in a conventional office scanner (Epson). The area covered by colonies was calculated using the ColonyArea Plugin for ImageJ.

[5] = tested on: T47D; assay: Clonogenic assay (clonal expansion); type: cell-based; settings: Homo sapiens; Breast Cancer (T47D), ER+; inhibition of clonal expansion
Procedure: as §1

[6] = tested on: TRMCF-7 cells; assay: Clonogenic assay (clonal expansion); type: cell-based
Procedure: as §1

[7] = tested on: DU145; assay: Clonogenic assay (clonal expansion); type: cell-based; settings: Homo sapiens, DU-145; Prostate Cancer (DU145), AR-; inhibition of clonal expansion
Procedure: as §1

[8] = tested on: MDA-MB231; assay: Clonogenic assay (clonal expansion); type: cell-based; settings: Homo sapiens, MDA-MB-231; Breast Cancer (MDA-MB231), ER-; inhibition of clonal expansion
Procedure: as §1

[9] = tested on: LNCaP; assay: Clonogenic assay (clonal expansion); type: cell-based; settings: Homo sapiens; Prostate Cancer (LNCaP), AR+; inhibition of clonal expansion
Procedure: as §1

[10] = tested on: PC3; assay: Clonogenic assay (clonal expansion); type: cell-based; settings: Homo sapiens; Prostate Cancer (PC3), AR-; inhibition of clonal expansion
Procedure: as §1

[11] = tested on: HeLa; assay: Clonogenic assay (clonal expansion); type: cell-based; settings: HeLa (cervical)
Procedure: as §1

[12] = tested on: A549; assay: Clonogenic assay (clonal expansion); type: cell-based; settings: A549 (lung)
Procedure: as §1

[13] = tested on: ZR75-1; assay: Clonogenic assay (clonal expansion); type: cell-based; settings: Homo sapiens, ZR-75-1; Breast Cancer (ZR75-1), ER+; inhibition of clonal expansion
Procedure: as §1

[14] = tested on: p53; assay: Western blot of p53 level in breast cancer cells; type: cell-based; settings: 48 h
Procedure: For Western blotting, cells were lysed in NP-40 lysis buffer (1% NP-40, 50 mM Tris-HCl, pH 8.0, 150 mM NaCl, 5 mM EDTA) or 1× passive lysis buffer (Promega, Germany) for 15 min on ice. Cell debris was removed by centrifugation at 13,000 rpm for 10 min and used for SDS-polyacrylamide gel electrophoresis (PAGE) and Western blotting.
Western Blotting was carried out using standard protocols with antibodies: p53 (clone DO1), p53 (Sp5, Thermo Fisher Scientific Karlsruhe, Germany), Mdm2 (4B2, Abcam, Cambridge, UK). […] Secondary goat anti-mouse and goat anti-rabbit antibodies were purchased from DAKO (Bollschweil, Germany).

[15] = tested on: LNCaP and LAPC-4 cells; assay: Apoptosis by automated high-throughput microscopy (Hoechst / propidium iodide); type: cell-based; settings: 48 h
Procedure: Apoptosis in LNCaP and LAPC-4 cells was measured using an automated high-throughput microscopy method known in the art. In brief, LNCaP and LAPC4 cells (5×10^3) were seeded in a 96-well plate format. Cells were treated with 10^-9 - 10^-6 M X15695, DMSO or etoposide (250 µM) for 48h. Cells were stained with Hoechst 33342 (0,15 µg/ml) and propidium iodide (PI) (0,25 µg/ml) for 30 min at 37°C. Four brightfield and fluorescence images were acquired from different positions in each well using an automated Olympus IX81 fluorescence microscope (Olympus, Hamburg, Germany). The Hoechst dye was detected at excitation 350 nm and emission 450 nm and PI dye was detected at 488 nm and 590 nm. The total number of cells (all Hoechst-stained nuclei) as well as the number of early apoptotic, late apoptotic, and necrotic cells (combination of Hoechst and PI nuclei intensity) was obtained by analyzing images with the scan^R software (version 2.7.3, Olympus, Hamburg, Germany).

In the case of Fc1ccc(-c2cn3cc(C(F)(F)F)cc(Cl)c3n2)cc1 [Compound X15695, 8-Chloro-2-(4-fluorophenyl)-6-(trifluoromethyl)imidazo[1,2-a]pyridine], the ERα half-life [1] is reported as “about 60 min”, the ROS production ([2]; MCF-7 cells) is reported as “significant dose-dependent production of ROS” and the ROS production ([2]; T47D cells) is reported as “not in T47D cells”. The “cellular localization of p53” value [3] was “accumulated in the nucleus as early as 8 h after X15695 treatment”, the IC50 ([4]; Homo sapiens, MCF7, Breast Cancer (MCF-7), ER+, inhibition of clonal expansion) was 3.5 ± 1.7 nM and the “effect on clonal expansion” value ([4]; MCF-7 cells, compared with HeLa, A549 and U2OS) was “dose-dependently inhibited the clonal expansion”. The IC50 [5] was 10.4 ± 2.8 nM, the “inhibition of clonal expansion” value [6] was “active” and the IC50 [7] was 1340 nM. The IC50 [8] was 5540 nM, the IC50 [9] was 14.1 nM and the IC50 [10] was 2040 nM. For the same molecule, the “effect on clonal expansion” value [11] was “did not have any effect”, the “effect on clonal expansion” value [12] was “did not have any effect” and the IC50 [13] was 7.3 ± 1.6 nM. The p53 level ([14]; MCF-7 cells (wild-type p53)) was “significantly increased”, the p53 level ([14]; T47D cells (mutated p53 L194F)) was “not in T47D cells” and the apoptosis [15] was “No apoptotic effect”.
